In patent US20230140941A1, “NON-ATP/CATALYTIC SITE P38 MITOGEN ACTIVATED PROTEIN KINASE INHIBITORS” (UNIVERSITY OF MARYLAND, BALTIMORE, priority 2020, published 2023):

What was measured:
[1] = tested on: patients with Crohn's disease; conditions: cited from earlier work
[2] = tested on: p38-dependent phosphorylation of Stat-1; assay: Inhibition of substrate phosphorylation in HeLa cells, Stat-1; format: cell-based, human; conditions: 10 μM SB203580 or 50 μM UM101 30 min, then anisomycin
Text: (§1) Cell extracts prepared in RIPA buffer containing protease and phosphatase inhibitors were resolved by SDS-PAGE, transferred to PVDF membrane, blocked with 5% nonfat dry milk, probed with primary antibodies against phosphorylated MK2 and Stat-1, and total p38α as a loading control. Bands were detected using secondary antibodies conjugated to infrared fluorophores and infrared fluorescence imaging (Odyssey; LICOR).

[3] = tested on: LPS/hyperthermia-induced ALI; assay: Mouse LPS/hyperthermia-induced acute lung injury model, pretreatment; conditions: for mice died within 24 h: 1000 μg i.p. 30 min prior to 50 μg LPS i.t. and hyperthermia
[4] = tested on: p38α vs. p38β; conditions: cited from earlier work
[5] = tested on: HMVECL monolayers; assay: Endothelial permeability assay (10 kDa dextran flux); format: cell-based, human; conditions: TNFα and 39.5° C. for 6 h
Method: Endothelial permeability assay: Permeability of HMVECL monolayers was assessed by measuring transendothelial flux of 10 kDa dextran conjugated to Cascade blue fluorescent dye for 30 min at 37° C. in Matrigel-coated 3 μm pore size Transwell plates.

[6] = tested on: p38-dependent phosphorylation of MK2; assay: Inhibition of substrate phosphorylation in HeLa cells, MK2; format: cell-based, human; conditions: 10 μM SB203580 or 50 μM UM101 30 min, then anisomycin
Text: as §1

[7] = tested on: IL-8-directed neutrophil TEM through HMVECLs; assay: Neutrophil transendothelial migration (TEM) assay; format: cell-based, human; conditions: HMVECLs 39.5° C. 6 h
Method: Neutrophil transendothelial migration (TEM) assay: Neutrophils were isolated from heparinized venous blood that was collected from healthy volunteers using a protocol approved by the University of Maryland Institutional Review Board and TEM of calcein-labeled neutrophils through HMVECLs was measured.

[8] = target: T1, p38β (Homo sapiens, UniProt Q15759); assay: Differential scanning fluorimetry (DSF), p38β; format: binding
T1 construct: HA (N); made in house; host or cells: E. coli BL21

[9] = tested on: HMVECLs; assay: TNFα-induced gene expression in HMVECLs (RNASeq); conditions: 10 μM SB203580
[10] = tested on: LPS-induced lung inflammation; assay: Mouse acute lung injury, pretreatment i.p. 1 mg (FIG. 9); format: in vivo; conditions: pretreated i.p. 1 mg, then 100 mg LPS i.t. at 39° C.
Method: Mice were pretreated i.p. with 1 mg of test compounds and then treated with […] LPS i.t. at 39° C. to induce inflammation. Lung injury was assessed by measuring total protein in the lung lavage fluid.
(§2) First, the compounds can block thrombin-induced cell permeability in human vascular endothelial cells (FIG. 8). […] Mice were pretreated i.p. with 1 mg of test compounds and then treated with […] LPS i.t. at 39° C. to induce inflammation. Lung injury was assessed by measuring total protein in the lung lavage fluid. […] All mice received 50 μg LPS i.t. and were kept 24 h at 39° C.; all treatments 1 mg in 0.5 ml DMSO given 6 h post-LPS; mean±SM, n=5, * p=0.03 vs DMSO #1; † p=0.16 vs DMSO #2. Lung injury was assessed by measuring total protein in the lung lavage fluid.

[11] = tested on: LPS-induced lung injury; assay: Mouse acute lung injury, treatment 6 h post-LPS (FIG. 10); format: in vivo; conditions: 50 μg LPS i.t., 24 h at 39° C., 1 mg in 0.5 ml DMSO 6 h post-LPS
Method: All mice received 50 μg LPS i.t. and were kept 24 h at 39° C.; all treatments 1 mg in 0.5 ml DMSO given 6 h post-LPS; mean±SM, n=5, * p=0.03 vs DMSO #1; † p=0.16 vs DMSO #2. Lung injury was assessed by measuring total protein in the lung lavage fluid.
as §2

[12] = target: recombinant ERK2 (Homo sapiens, UniProt P28482); assay: Differential scanning fluorimetry (DSF), ERK2; format: binding; conditions: for ERK2 ΔTm (° C.) @100 μM: change in melting temperature relative to DMSO control in DSF assay; for stabilization of ERK2 in DSF: 10-100 μM
[13] = tested on: HMVECLs; assay: Cytotoxicity, LDH release; format: cell-based, human; conditions: 100 μM for 48 h
[14] = tested on: HMVECLs; assay: Cytotoxicity, MTS assay; format: cell-based, human; conditions: 100 μM for 48 h
[15] = target: unphosphorylated recombinant human p38α (Homo sapiens, UniProt Q16539); assay: Differential scanning fluorimetry (DSF), p38α; conditions: for p38α ΔTm (° C.) @100 μM: change in melting temperature relative to DMSO control in DSF assay; for increase in melting temperature of p38α: added at 100 μM
[16] = target: T2, p38α (Homo sapiens, UniProt Q16539); assay: STD-NMR, p38α; format: binding; conditions: 200 μM UM101, 5 μM protein
T2 construct: made in house; host or cells: E. coli BL21
Method: (§3) Spectra were recorded on an Agilent DD2 500-MHz spectrometer equipped with a 5-mm inverse HFCN probe head at 300 K. During each transient, the protein was saturated with a series of 58 […]-shaped pulses (50 ms, 1 ms delay between pulses) using the vendor-supplied STD-ES pulse sequence, for a total saturation time of 3 seconds. The on-resonance irradiation of protein was done at 0.5 ppm and off-resonance irradiation at 30 ppm. The vendor-supplied WATERGATE pulse sequence was used to suppress the water signal in the STD spectrum. The on-resonance and off-resonance pulse sequences were subtracted internally. A total of 16,384 transients were collected for each STD experiment with a 1 second delay between acquisitions, 6000 Hz spectral width, and 1.3 second acquisition time.

[17] = target: T1, p38β; assay: STD-NMR, p38β; format: binding; conditions: 200 μM UM101, 5 μM protein
Method: as §3

[18] = target: T3, p38α mutant (R49K/HL 107-8TF/K165R) (Homo sapiens, UniProt Q16539, H107T/K165R/L108F/R49K); assay: DSF, p38α mutant with 4 mutations in CADD-targeted pocket; format: binding; conditions: four of ten target pocket amino acids substituted
T3 construct: made in house; host or cells: E. coli BL21

[19] = target: T4, mutated p38α (Homo sapiens, UniProt Q16539, H107T/K165R/L108F/R49K); assay: STD-NMR, mutated p38α; format: binding; conditions: 200 μM UM101, 5 μM protein
T4 construct: made in house; host or cells: E. coli BL21
Method: as §3

[20] = tested on: rheumatoid arthritis; conditions: two trials; cited from earlier work
[21] = tested on: patients at-risk for ARDS; conditions: cited from earlier work
[22] = tested on: patients with hypercholesterolemia; conditions: cited from earlier work

recombinant ERK2, sequence (P28482 whole entry, species assumed): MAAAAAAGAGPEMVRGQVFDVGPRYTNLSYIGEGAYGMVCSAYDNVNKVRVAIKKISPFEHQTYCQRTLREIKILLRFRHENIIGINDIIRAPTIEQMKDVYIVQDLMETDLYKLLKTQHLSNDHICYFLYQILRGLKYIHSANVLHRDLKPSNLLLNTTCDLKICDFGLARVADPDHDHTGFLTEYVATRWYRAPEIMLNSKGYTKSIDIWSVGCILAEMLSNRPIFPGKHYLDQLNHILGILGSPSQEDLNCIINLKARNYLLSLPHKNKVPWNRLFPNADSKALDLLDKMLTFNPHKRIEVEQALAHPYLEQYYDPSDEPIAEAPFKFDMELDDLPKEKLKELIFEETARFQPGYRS
unphosphorylated recombinant human p38α, sequence (Q16539 whole entry): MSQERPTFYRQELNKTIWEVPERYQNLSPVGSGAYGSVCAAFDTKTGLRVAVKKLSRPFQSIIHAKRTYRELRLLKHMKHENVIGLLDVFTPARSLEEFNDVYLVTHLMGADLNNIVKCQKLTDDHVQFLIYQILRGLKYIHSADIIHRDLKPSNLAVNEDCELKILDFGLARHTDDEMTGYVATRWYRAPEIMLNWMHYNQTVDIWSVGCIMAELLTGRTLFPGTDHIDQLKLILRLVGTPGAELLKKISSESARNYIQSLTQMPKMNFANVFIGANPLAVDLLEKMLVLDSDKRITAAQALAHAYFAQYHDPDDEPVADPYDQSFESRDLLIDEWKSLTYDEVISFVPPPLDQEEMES
T1 sequence (Q15759 whole entry): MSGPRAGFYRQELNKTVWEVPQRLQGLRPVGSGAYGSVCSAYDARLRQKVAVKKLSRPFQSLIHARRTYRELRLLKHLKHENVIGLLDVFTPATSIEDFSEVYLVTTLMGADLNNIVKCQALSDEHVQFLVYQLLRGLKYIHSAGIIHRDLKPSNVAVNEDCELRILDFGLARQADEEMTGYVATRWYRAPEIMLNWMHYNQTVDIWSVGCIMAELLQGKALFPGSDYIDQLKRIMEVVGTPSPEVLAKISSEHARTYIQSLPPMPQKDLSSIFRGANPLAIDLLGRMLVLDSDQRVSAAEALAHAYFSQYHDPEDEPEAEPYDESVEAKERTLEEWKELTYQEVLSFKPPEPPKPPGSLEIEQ
T2 sequence (Q16539 whole entry): as the sequence (Q16539 whole entry) above
T3 sequence (Q16539 whole entry R49K/H107T/L108F/K165R): as the sequence (Q16539 whole entry) above, with R49K, H107T, L108F, K165R counted along it
T4 sequence (Q16539 whole entry R49K/H107T/L108F/K165R): as the sequence (Q16539 whole entry) above, with R49K, H107T, L108F, K165R counted along it

Cc1ccc(-n2nc(C(C)(C)C)cc2NC(=O)Nc2ccc(OCCN3CCOCC3)c3ccccc23)cc1 [BIRB 796]
clinical effect [1]: no clinical effect
serum CRP levels [1]: transiently reduced

C[S+]([O-])c1ccc(-c2nc(-c3ccncc3)c(-c3ccc(F)cc3)[nH]2)cc1 (centres unmarked) [SB203580, reference compound]
anisomycin-stimulated phosphorylation of Stat-1 (immunoblot) [2]: reduced
reduction of lavage neutrophil content vs. DMSO-treated controls ([3]; 1000 μg i.p.): 46.8%
mice died within 24 h [3]: one of six
higher binding affinity for p38α than p38β [4]: ~10 fold
reduction of TNFα/hyperthermia-induced permeability increase for 10 kDa dextran ([5]; 10 μM): 50%
anisomycin-stimulated phosphorylation of MK2 (immunoblot) [6]: reduced
reduction of hyperthermia-augmented increase in neutrophil TEM ([7]; 10 μM): 84%
stabilization of p38β in DSF [8]: stabilized both p38α and p38β
number of TNFα-induced genes with expression inhibited [9]: 61 genes
number of genes with expression increased [9]: 38 genes

CN(C)c1cccc2c(S(=O)(=O)Nc3ccc(CN4CCS(=O)(=O)CC4)cc3)cccc12 [SF-6-222]
protein leak into bronchoalveolar lavage fluid (total protein) [10]: reduced protein leak
protein leak into bronchoalveolar lavage fluid (total protein) [11]: reduced protein leak

O=C(Nc1ccc(CN2CCOCC2)cc1)c1ccc(Cl)cc1 [SF-7-009]
protein leak into bronchoalveolar lavage fluid (total protein) [10]: reduced protein leak
protein leak into bronchoalveolar lavage fluid (total protein) [11]: reduced protein leak

CN(C)c1cccc2c(S(=O)(=O)Nc3ccc(CN4CCOCC4)cc3)cccc12 [SF-7-044]
protein leak into bronchoalveolar lavage fluid (total protein) [11]: reduced protein leak

O=C1c2cc(S(=O)(=O)NCCO)ccc2-c2ccc(S(=O)(=O)NCCO)cc21 [UM60, N2,N7-di(2-hydroxyethyl)-9-oxo-9H-2,7-fluorenedisulfonamiide]
ERK2 ΔTm (° C.) @100 μM [12]: 0.195 °C
stabilization of ERK2 in DSF [12]: not ERK2
mice died within 24 h [3]: Four of six
reduction of TNFα/hyperthermia-induced permeability increase for 10 kDa dextran ([5]; 10 μM): no effect
reduction of TNFα/hyperthermia-induced permeability increase for 10 kDa dextran ([5]; 25 μM): no effect
reduction of TNFα/hyperthermia-induced permeability increase for 10 kDa dextran ([5]; 100 μM): 71%
reduction of hyperthermia-augmented increase in neutrophil TEM ([7]; 10 μM): 18%
reduction of hyperthermia-augmented increase in neutrophil TEM ([7]; 25 μM): 89%
reduction of hyperthermia-augmented increase in neutrophil TEM ([7]; 50 μM): less than baseline levels
toxicity in LDH release assay [13]: Neither compound was toxic
toxicity in MTS assay [14]: Neither compound was toxic
stabilization of p38α in DSF [15]: stabilized p38α
p38α ΔTm (° C.) @100 μM [15]: 0.735 °C
increase in melting temperature of p38α [15]: ~0.7 °C

O=C(Nc1ccc(CN2CCS(=O)(=O)CC2)cc1)c1ccc(Cl)cc1 [UM101, 4-chloro-N-{4-[(1,1-dioxo-1lambda˜6˜-,4thiazinan-4-yl)methyl]phenyl}benzaniide]
ERK2 ΔTm (° C.) @100 μM [12]: 0.0175 °C
stabilization of ERK2 in DSF [12]: not ERK2
anisomycin-stimulated phosphorylation of Stat-1 (immunoblot) [2]: reduced
interaction with p38α in STD-NMR [16]: protons in both aromatic rings of UM101 interact with p38α
reduction of lavage neutrophil content vs. DMSO-treated controls ([3]; 100 μg i.p.): 44.4%
reduction of lavage neutrophil content vs. DMSO-treated controls ([3]; 300 μg i.p.): 49.5%
reduction of lavage neutrophil content vs. DMSO-treated controls ([3]; 500 μg i.p.): 55.3%
reduction of lavage neutrophil content vs. DMSO-treated controls ([3]; 1000 μg i.p.): 54%
mice survived (24 h) ([3]; 100, 300, 500 or 1000 μg i.p. 30 min prior to 50 μg LPS i.t. and hyperthermia): All sixteen
reduction of TNFα/hyperthermia-induced permeability increase for 10 kDa dextran ([5]; 10 μM): 74%
reduction of TNFα/hyperthermia-induced permeability increase for 10 kDa dextran ([5]; 25 μM): 89%
reduction of TNFα/hyperthermia-induced permeability increase for 10 kDa dextran ([5]; 100 μM): > 100%
protein leak into bronchoalveolar lavage fluid (total protein) [10]: reduced protein leak
interaction with p38β in STD-NMR [17]: much weaker
anisomycin-stimulated phosphorylation of MK2 (immunoblot) [6]: reduced
reduction of hyperthermia-augmented increase in neutrophil TEM ([7]; 10 μM): 95%
reduction of hyperthermia-augmented increase in neutrophil TEM ([7]; 25 μM): less than baseline levels
reduction of hyperthermia-augmented increase in neutrophil TEM ([7]; 50 μM): less than baseline levels
toxicity in LDH release assay [13]: Neither compound was toxic
toxicity in MTS assay [14]: Neither compound was toxic
stabilization of p38β in DSF [8]: only stabilized p38α
binding to p38α mutant in DSF [18]: no UM101-binding
interaction with mutated p38α in STD-NMR [19]: much weaker
stabilization of p38α in DSF [15]: only stabilized p38α
p38α ΔTm (° C.) @100 μM [15]: 0.667 °C
increase in melting temperature of p38α [15]: ~0.7 °C

NC(=O)c1ccc(N(C(N)=O)c2c(F)cccc2F)nc1-c1ccc(F)cc1F [VX-702]
proportion of treated subjects with ACR20 symptom score vs. placebo [20]: small increases

Cc1cc(F)ccc1-c1nc(NC(CO)CO)nc2c1ccc(=O)n2-c1c(F)cccc1F [dilmapimod]
safety [21]: safe at the doses administered
serum C-reactive protein (CRP) levels [21]: modestly reduced

Cc1c(F)cc(C(=O)NC2CC2)cc1-c1ccc(C(=O)NCC(C)(C)C)cn1 [losmapimod]
serum CRP [22]: reduced serum CRP
vascular relaxation [22]: improved vascular relaxation
